Source: the supplement of paper PMC11208160

Test: recombinant UMI read abundance after kanamycin selection (control-corrected) (log10(CPM+1)); higher = more efficient recombination; extreme values may be limits of the assay; sequences stand for … in AGTGCAGAGAAAATCGGCCAGTTTTCTCTGCCTGCAGTCCGCATGCCGTGGGACCCCTTGGGTTCTAACCTGTTGCCTAGATTTATGCAGCGGACTGCCTTTCTCCCAAAGTGATAAACCGG…AGGTTGGTTTCACT; site = the 11-nt donor
In short: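 Each donor and donor-binding-loop pair was tracked by a 12-nt UMI on a plasmid carrying a promoterless kanamycin gene. With a second plasmid supplying a fixed target and T7-inducible IS621 bridge recombinase, the pool was plated in Escherichia coli on IPTG (0.07 mM) plus kanamycin or unselected. Sequencing of recombinant UMIs across the donor–target junction gave counts expressed as log10(CPM+1) after replicate averaging and control-derived scaling.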
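Further: IS621 bridge recombinase in Escherichia coli cells against a fixed T5 target plasmid.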

Sequence | recombinant UMI read abundance (log10)
TAGATTACATGGACCGGTTTTCCCGGTAATCCGTATTTGCA (site TAGATTACTTG) | 1.52
TAGCCCACATGGACCGGTTTTCCCGGTAATCCGTATTTGTT (site TAGCCCACTAA) | 0.409
TAGCCGGCATGGACCGGTTTTCCCGGTAATCCGTATTTGTA (site TAGCCGGCTTA) | 0.599
TAGCTGGCATGGACCGGTTTTCCCGGTAATCCGTATTTGAA (site TAGCTAGCTTT) | 0.588
TAGCTGGCATGGACCGGTTTTCCCGGTAATCCGTATTTGAA (site TAGCTCGCTTT) | 0.0161
TAGCTGGCATGGACCGGTTTTCCCGGTAATCCGTATTTGAA (site TAGCTGGCTTT) | 0.732
TAGCTGGCATGGACCGGTTTTCCCGGTAATCCGTATTTGAA (site TAGCTTGCTTT) | 0
TAGCTTACATGGACCGGTTTTCCCGGTAATCCGTATTTGTC (site TAGCTTACTGA) | 1.56
TAGCTTCCATGGACCGGTTTTCCCGGTAATCCGTATTTGGG (site TAGCTTCCTCC) | 0.0588
TAGCTTGCATGGACCGGTTTTCCCGGTAATCCGTATTTGAA (site TAGCTAGCTTT) | 0.0193
TAGCTTGCATGGACCGGTTTTCCCGGTAATCCGTATTTGAA (site TAGCTCGCTTT) | 0.0167
TAGCTTGCATGGACCGGTTTTCCCGGTAATCCGTATTTGAA (site TAGCTGGCTTT) | 0.02
TAGCTTGCATGGACCGGTTTTCCCGGTAATCCGTATTTGAA (site TAGCTTGCTTT) | 1.4
TAGCTTTCATGGACCGGTTTTCCCGGTAATCCGTATTTGGT (site TAGCATTCTAC) | 0.374
TAGCTTTCATGGACCGGTTTTCCCGGTAATCCGTATTTGGT (site TAGCCTTCTAC) | 0.157
TAGCTTTCATGGACCGGTTTTCCCGGTAATCCGTATTTGGT (site TAGCGTTCTAC) | 0
TAGCTTTCATGGACCGGTTTTCCCGGTAATCCGTATTTGGT (site TAGCTTTCTAC) | 0.807
TAGGAAACATGGACCGGTTTTCCCGGTAATCCGTATTTGCG (site TAGGAAACTCG) | 2.39
TAGGAAACATGGACCGGTTTTCCCGGTAATCCGTATTTGCG (site TAGGAACCTCG) | 0
TAGGAAACATGGACCGGTTTTCCCGGTAATCCGTATTTGCG (site TAGGAAGCTCG) | 2.11
TAGGAAACATGGACCGGTTTTCCCGGTAATCCGTATTTGCG (site TAGGAATCTCG) | 1.75
TAGGCTGCATGGACCGGTTTTCCCGGTAATCCGTATTTGGT (site TAGGCTGCTAC) | 0.811
TAGGGATCATGGACCGGTTTTCCCGGTAATCCGTATTTGCG (site TAGGAATCTCG) | 2.07
TAGGGATCATGGACCGGTTTTCCCGGTAATCCGTATTTGCG (site TAGGCATCTCG) | 0.735
TAGGGATCATGGACCGGTTTTCCCGGTAATCCGTATTTGCG (site TAGGGATCTCG) | 2.78

Sequence | recombinant UMI read abundance (log10)
TAGGGATCATGGACCGGTTTTCCCGGTAATCCGTATTTGCG (site TAGGTATCTCG) | 1.27
TAGGGATCATGGACCGGTTTTCCCGGTAATCCGTATTTGCT (site TAGGGATCTAG) | 2.31
TAGGGGACATGGACCGGTTTTCCCGGTAATCCGTATTTGTT (site TAGGGGACTAA) | 1.75
TAGGGTGCATGGACCGGTTTTCCCGGTAATCCGTATTTGAC (site TAGGGTGCTGT) | 2.6
TAGGGTGCATGGACCGGTTTTCCCGGTAATCCGTATTTGCC (site TAGGGTGCTGG) | 2.58
TAGGTTACATGGACCGGTTTTCCCGGTAATCCGTATTTGAT (site TAGGTTACTAT) | 1.79
TAGGTTGCATGGACCGGTTTTCCCGGTAATCCGTATTTGGT (site TAGGTTGCTAC) | 1.27
TAGTCTTCATGGACCGGTTTTCCCGGTAATCCGTATTTGGT (site TAGACTTCTAC) | 0.017
TAGTCTTCATGGACCGGTTTTCCCGGTAATCCGTATTTGGT (site TAGCCTTCTAC) | 0.322
TAGTCTTCATGGACCGGTTTTCCCGGTAATCCGTATTTGGT (site TAGGCTTCTAC) | 0.012
TAGTCTTCATGGACCGGTTTTCCCGGTAATCCGTATTTGGT (site TAGTCTTCTAC) | 0.376
TAGTGTACATGGACCGGTTTTCCCGGTAATCCGTATTTGGT (site TAGTGTACTAC) | 0.534
TAGTTGACATGGACCGGTTTTCCCGGTAATCCGTATTTGCT (site TAATTGACTAG) | 1.17
TAGTTGACATGGACCGGTTTTCCCGGTAATCCGTATTTGCT (site TACTTGACTAG) | 0.55
TAGTTGACATGGACCGGTTTTCCCGGTAATCCGTATTTGCT (site TAGTTGACTAG) | 2.13
TAGTTGACATGGACCGGTTTTCCCGGTAATCCGTATTTGCT (site TATTTGACTAG) | 0.0101
TATAAGACATGGACCGGTTTTCCCGGTAATCCGTATTTGAC (site TATAAGACTGT) | 2.01
TATAATTCATGGACCGGTTTTCCCGGTAATCCGTATTTGAC (site TATAATTCTGT) | 0.209
TATAGCCCATGGACCGGTTTTCCCGGTAATCCGTATTTGTA (site TATAGCCCTTA) | 0.181
TATAGCGCATGGACCGGTTTTCCCGGTAATCCGTATTTGTG (site TATAGCGCTCA) | 0.205
TATAGGACATGGACCGGTTTTCCCGGTAATCCGTATTTGAT (site TATAGGACTAT) | 1.11
TATATGGCATGGACCGGTTTTCCCGGTAATCCGTATTTGTG (site TATATGGCTCA) | 0.368
TATATGGCATGGACCGGTTTTCCCGGTAATCCGTATTTGTG (site TATCTGGCTCA) | 0.00271
TATATGGCATGGACCGGTTTTCCCGGTAATCCGTATTTGTG (site TATGTGGCTCA) | 0.00727
TATATGGCATGGACCGGTTTTCCCGGTAATCCGTATTTGTG (site TATTTGGCTCA) | 0.0941

Sequence | recombinant UMI read abundance (log10)
TATATTGCATGGACCGGTTTTCCCGGTAATCCGTATTTGTC (site TATATTGCTGA) | 0
TATCCCGCATGGACCGGTTTTCCCGGTAATCCGTATTTGCC (site TATCCCGCTGG) | 1.79
TATCCTGCATGGACCGGTTTTCCCGGTAATCCGTATTTGAC (site TATCCTGCTGT) | 0
TATCGAACATGGACCGGTTTTCCCGGTAATCCGTATTTGTT (site TATCGAACTAA) | 0.00888
TATCTCACATGGACCGGTTTTCCCGGTAATCCGTATTTGAC (site TATCTCACTGT) | 2.11
TATCTTTCATGGACCGGTTTTCCCGGTAATCCGTATTTGAT (site TATCTTTCTAT) | 0
TATGCCACATGGACCGGTTTTCCCGGTAATCCGTATTTGTA (site TATGCCACTTA) | 0.598
TATGGCCCATGGACCGGTTTTCCCGGTAATCCGTATTTGAT (site TATGGCCCTAT) | 0.0149
TATGTAGCATGGACCGGTTTTCCCGGTAATCCGTATTTGTT (site TATGTAGCTAA) | 1.23
TATTCAACATGGACCGGTTTTCCCGGTAATCCGTATTTGCA (site GGGAACGCTAA) | 0.00333
TATTCAACATGGACCGGTTTTCCCGGTAATCCGTATTTGTG (site TATTCAACTCA) | 0.011
TATTGAGCATGGACCGGTTTTCCCGGTAATCCGTATTTGGG (site TAATGAGCTCC) | 0.0665
TATTGAGCATGGACCGGTTTTCCCGGTAATCCGTATTTGGG (site TACTGAGCTCC) | 0.0155
TATTGAGCATGGACCGGTTTTCCCGGTAATCCGTATTTGGG (site TAGTGAGCTCC) | 0.0187
TATTGAGCATGGACCGGTTTTCCCGGTAATCCGTATTTGGG (site TATTGAGCTCC) | 0
TATTGATCATGGACCGGTTTTCCCGGTAATCCGTATTTGTG (site TATTGATCTCA) | 0.805
TATTGTTCATGGACCGGTTTTCCCGGTAATCCGTATTTGTG (site TATTGTTCTCA) | 0.00773
TATTTGACATGGACCGGTTTTCCCGGTAATCCGTATTTGCT (site TAATTGACTAG) | 1.9
TATTTGACATGGACCGGTTTTCCCGGTAATCCGTATTTGCT (site TACTTGACTAG) | 0.882
TATTTGACATGGACCGGTTTTCCCGGTAATCCGTATTTGCT (site TAGTTGACTAG) | 0.852
TATTTGACATGGACCGGTTTTCCCGGTAATCCGTATTTGCT (site TATTTGACTAG) | 2.54
TATTTGACATGGACCGGTTTTCCCGGTAATCCGTATTTGTG (site TATTTGACTCA) | 0.0179
TATTTGACATGGACCGGTTTTCCCGGTAATCCGTATTTGTG (site TATTTGCCTCA) | 0.00551
TATTTGACATGGACCGGTTTTCCCGGTAATCCGTATTTGTG (site TATTTGGCTCA) | 0.00542
TATTTGACATGGACCGGTTTTCCCGGTAATCCGTATTTGTG (site TATTTGTCTCA) | 0.0134
